Test results published in the NIST ThermoML archive (doi:10.1016/j.fluid.2005.08.018).
Where “and” joins values, the source holds several entries; their conditions need not be identical. Equal entries are not always repeated. ± gives the expanded uncertainty stated by the source.

Experiment: activity coefficient (dimensionless); of the first substance listed, at infinite dilution; xn = mol fraction of the nth substance listed
Conditions: Liquid, x1 = 0
[1] = 363.15 K, circulating still method
[2] = 303.15 K, comparative tensimetry
[3] = 308.15 K, comparative tensimetry
[4] = 313.15 K, comparative tensimetry
[5] = 318.15 K, comparative tensimetry
[6] = 323.15 K, comparative tensimetry
[7] = 328.15 K, comparative tensimetry
[8] = 333.15 K, comparative tensimetry
[9] = 372.15 K, circulating still method
[10] = 358.15 K, circulating still method
[11] = 368.15 K, circulating still method

Row | SMILES | activity coefficient (273.35 K, headspace analysis) | activity coefficient (283.15 K, headspace analysis) | activity coefficient (293.15 K, headspace analysis) | activity coefficient [1] | activity coefficient [2] | activity coefficient [3] | activity coefficient [4] | activity coefficient [5] | activity coefficient [6] | activity coefficient [7] | activity coefficient [8] | activity coefficient [9] | activity coefficient [10] | activity coefficient [11] | further results
1 | CCCCCO [pentan-1-ol] + O | 121 ± 4 | 156 ± 5 | 184 ± 6 | 181 ± 5 |  |  |  |  |  |  |  |  |  |  | activity coefficient (303.15 K, inert gas stripping): 203 ± 6; activity coefficient (313.15 K, inert gas stripping): 221 ± 7; activity coefficient (323.15 K, inert gas stripping): 230 ± 7; activity coefficient (333.15 K, Rayleigh distillation): 221 ± 7; activity coefficient (343.15 K, Rayleigh distillation): 206 ± 6; activity coefficient (353.15 K, circulating still method): 203 ± 6; activity coefficient (371.15 K, circulating still method): 169 ± 5
2 | CO [methanol] + O | 1.23 ± 0.04 | 1.4 ± 0.04 | 1.55 ± 0.05 |  | 1.71 ± 0.05 | 1.8 ± 0.05 | 1.88 ± 0.06 | 1.95 ± 0.06 | 2.02 ± 0.06 | 2.09 ± 0.06 | 2.16 ± 0.07 |  |  |  | activity coefficient (358.15 K, circulation still method): 2.31 ± 0.07; activity coefficient (363.15 K, circulation still method): 2.38 ± 0.07; activity coefficient (368.15 K, circulation still method): 2.41 ± 0.07; activity coefficient (372.15 K, circulation still method): 2.4 ± 0.07
3 | CCCCO [butan-1-ol] + O | 32.6 ± 1 | 40.4 ± 1.2 | 48.4 ± 1.5 |  | 53.4 ± 1.6 | 57.2 ± 1.7 | 58.9 ± 1.8 | 60.2 ± 1.8 | 61.5 ± 1.8 | 62.8 ± 1.9 | 63.4 ± 1.9 | 56.1 ± 1.7 |  |  | activity coefficient (323.15 K, headspace analysis): 58.7 and 59.4
4 | CCO [ethanol] + O | 2.54 ± 0.08 | 3.13 ± 0.09 |  | 6 ± 0.2 | 4.14 ± 0.12 | 4.43 ± 0.13 | 4.66 ± 0.14 | 4.85 ± 0.15 | 5.03 ± 0.15 | 5.2 ± 0.16 | 5.3 ± 0.16 | 6.2 ± 0.2 | 5.9 ± 0.2 | 6.1 ± 0.2 | 
5 | CCCO [propan-1-ol] + O | 8.9 ± 0.3 | 11.2 ± 0.3 | 13.5 ± 0.4 | 19.5 ± 0.6 | 15.3 ± 0.5 | 16.1 ± 0.5 | 16.7 ± 0.5 | 17.5 ± 0.5 | 18.1 ± 0.5 | 18.6 ± 0.6 | 19 ± 0.6 | 18.9 ± 0.6 | 20.1 ± 0.6 | 18.7 ± 0.6 | 
